Test results taken from ChEMBL document CHEMBL1138151, “Design and synthesis of promiscuous high-affinity monoamine transporter ligands: unraveling transporter selectivity” (J Med Chem, 2006).

What was measured:
[1] = molecular target: T1, Sodium-dependent dopamine transporter (Homo sapiens, UniProt Q01959); test: Displacement of [125I]RTI-55 from DAT
[2] = molecular target: T2, Sodium-dependent serotonin transporter (Homo sapiens, UniProt P31645); test: Displacement of [125I]RTI-55 from SERT
[3] = molecular target: T3, Sodium-dependent noradrenaline transporter (Homo sapiens, UniProt P23975); test: Displacement of [3H]nisoxetine from NET
[4] = molecular target: T4, Monoamine transporters; serotonin & dopamine (Homo sapiens) (UniProt P31645+Q01959); test: Selectivity for SERT over DAT; type: protein assay
[5] = Selectivity for NET over DAT; type: protein assay; settings: Homo sapiens
[6] = molecular target: T1, Sodium-dependent dopamine transporter; test: Inhibition of [3H]DA uptake
[7] = molecular target: T2, Sodium-dependent serotonin transporter; test: Inhibition of [3H]5-HT uptake
[8] = molecular target: T3, Sodium-dependent noradrenaline transporter; test: Inhibition of [3H]NE uptake
[9] = molecular target: T4, Monoamine transporters; serotonin & dopamine (Homo sapiens); test: Ratio for uptake of 5HT over DA; type: protein assay
[10] = molecular target: Monoamine transporters; Norepinephrine & dopamine (Homo sapiens) (UniProt Q01959+P23975); test: Ratio for uptake of NE over DA; type: protein assay
Sequence of Monoamine transporters; Norepinephrine & dopamine (Homo sapiens) (P23975 whole entry, looked up): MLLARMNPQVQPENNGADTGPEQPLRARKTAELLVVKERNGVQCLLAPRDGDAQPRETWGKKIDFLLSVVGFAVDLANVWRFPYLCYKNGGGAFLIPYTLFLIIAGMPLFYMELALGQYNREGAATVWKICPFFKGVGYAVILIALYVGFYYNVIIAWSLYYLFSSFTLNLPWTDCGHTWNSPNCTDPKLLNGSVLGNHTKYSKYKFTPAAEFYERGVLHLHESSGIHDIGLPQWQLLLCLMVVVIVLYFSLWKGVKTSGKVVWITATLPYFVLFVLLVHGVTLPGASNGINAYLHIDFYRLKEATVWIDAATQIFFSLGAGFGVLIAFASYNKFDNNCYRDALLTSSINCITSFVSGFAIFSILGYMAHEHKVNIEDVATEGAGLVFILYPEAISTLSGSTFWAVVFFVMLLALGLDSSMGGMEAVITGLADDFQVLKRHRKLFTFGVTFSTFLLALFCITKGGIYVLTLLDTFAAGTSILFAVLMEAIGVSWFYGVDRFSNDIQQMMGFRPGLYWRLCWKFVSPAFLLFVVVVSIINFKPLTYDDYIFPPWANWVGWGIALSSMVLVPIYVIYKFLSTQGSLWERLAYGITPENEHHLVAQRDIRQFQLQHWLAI
Sequence of Monoamine transporters; Norepinephrine & dopamine (Homo sapiens) (Q01959 whole entry, looked up): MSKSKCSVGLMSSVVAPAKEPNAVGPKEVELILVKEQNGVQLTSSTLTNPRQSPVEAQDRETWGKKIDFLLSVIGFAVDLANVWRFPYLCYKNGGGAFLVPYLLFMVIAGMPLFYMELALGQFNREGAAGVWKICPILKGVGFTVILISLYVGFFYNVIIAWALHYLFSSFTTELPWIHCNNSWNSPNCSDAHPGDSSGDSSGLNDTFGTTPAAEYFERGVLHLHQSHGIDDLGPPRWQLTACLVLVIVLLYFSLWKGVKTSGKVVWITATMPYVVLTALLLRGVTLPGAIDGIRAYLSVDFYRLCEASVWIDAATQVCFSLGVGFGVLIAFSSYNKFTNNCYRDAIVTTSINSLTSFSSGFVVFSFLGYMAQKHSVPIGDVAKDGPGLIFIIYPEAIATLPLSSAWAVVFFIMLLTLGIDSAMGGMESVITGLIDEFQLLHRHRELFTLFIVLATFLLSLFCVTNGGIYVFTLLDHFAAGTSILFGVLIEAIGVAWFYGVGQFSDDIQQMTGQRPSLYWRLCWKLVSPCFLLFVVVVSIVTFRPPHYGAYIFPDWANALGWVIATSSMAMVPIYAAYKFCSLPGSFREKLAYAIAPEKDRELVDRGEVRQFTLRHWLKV

T2 sequence (P31645 whole entry): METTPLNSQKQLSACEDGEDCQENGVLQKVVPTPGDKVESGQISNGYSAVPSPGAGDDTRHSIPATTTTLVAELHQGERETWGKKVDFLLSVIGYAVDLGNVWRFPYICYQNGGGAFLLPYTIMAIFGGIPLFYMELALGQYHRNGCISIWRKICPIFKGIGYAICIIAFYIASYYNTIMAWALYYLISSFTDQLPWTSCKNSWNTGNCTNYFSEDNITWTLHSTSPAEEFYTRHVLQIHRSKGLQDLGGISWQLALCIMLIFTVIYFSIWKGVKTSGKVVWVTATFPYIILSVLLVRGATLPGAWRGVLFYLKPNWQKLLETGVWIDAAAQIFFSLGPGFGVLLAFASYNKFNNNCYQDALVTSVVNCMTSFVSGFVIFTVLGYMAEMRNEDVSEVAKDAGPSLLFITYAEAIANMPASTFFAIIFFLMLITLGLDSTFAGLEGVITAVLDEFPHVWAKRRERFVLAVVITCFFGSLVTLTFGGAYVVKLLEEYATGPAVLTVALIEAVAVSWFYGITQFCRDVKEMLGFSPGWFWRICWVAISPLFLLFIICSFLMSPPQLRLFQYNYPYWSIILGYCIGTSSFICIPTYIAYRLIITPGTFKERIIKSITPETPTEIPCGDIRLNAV
T4 sequence (P31645 whole entry, looked up): as the sequence (P31645 whole entry) above
T4 sequence (Q01959 whole entry, looked up): as the sequence (Q01959 whole entry, looked up) above
T1 sequence (Q01959 whole entry): as the sequence (Q01959 whole entry, looked up) above
T3 sequence (P23975 whole entry): as the sequence (P23975 whole entry, looked up) above

Q: Which Ki [1] does the source give for `O[C@H](CCc1ccccc1)CN1CCC(CCOC(c2ccc(F)cc2)c2ccc(F)cc2)CC1` here?
A: The Ki was 2.1 nM.

Q: And the Ki [2]?
A: Its Ki is 13 nM.

Q: And the Ki [3]?
A: The Ki was 460 nM.

Q: And the Ratio Ki [4]?
A: The Ratio Ki was 6.

Q: And the Ratio Ki [5]?
A: Its Ratio Ki is 215.

Q: What about the Ki [6] of the same compound?
A: Its Ki is 1.4 nM.

Q: What about the Ki [7] of the same compound?
A: Its Ki is 19 nM.

Q: And the Ki [8]?
A: The Ki was 79 nM.

Q: And the Ratio Ki [9]?
A: The Ratio Ki was 14.

Q: And the Ratio Ki [10]?
A: The Ratio Ki was 56.

Q: For `Fc1ccc(C(OCCC2CCN(C[C@H]3C[C@@H]3c3ccccc3)CC2)c2ccc(F)cc2)cc1`, which Ki [1] is on record?
A: The Ki was 1.4 nM.

Q: And the Ki [2]?
A: The Ki was 136 nM.

Q: What about the Ki [3] of the same compound?
A: The Ki was 359 nM.

Q: And the Ratio Ki [4]?
A: The Ratio Ki was 97.

Q: What about the Ratio Ki [5] of the same compound?
A: Its Ratio Ki is 256.

Q: With `C[C@@H](CCN1CCC(CCOC(c2ccc(F)cc2)c2ccc(F)cc2)CC1)c1ccccc1` as the compound, how does the Ki [1] read?
A: Its Ki is 1.3 nM.

Q: And the Ki [2]?
A: The Ki was 30 nM.

Q: What about the Ki [3] of the same compound?
A: Its Ki is 340 nM.

Q: And the Ratio Ki [4]?
A: Its Ratio Ki is 22.

Q: What about the Ratio Ki [5] of the same compound?
A: The Ratio Ki was 259.

Q: What about the Ki [6] of the same compound?
A: The Ki was 2.1 nM.

Q: What about the Ki [7] of the same compound?
A: The Ki was 75 nM.

Q: What about the Ki [8] of the same compound?
A: The Ki was 40 nM.

Q: And the Ratio Ki [9]?
A: The Ratio Ki was 36.

Q: And the Ratio Ki [10]?
A: The Ratio Ki was 19.

Q: For `C[C@H](CCN1CCC(CCOC(c2ccc(F)cc2)c2ccc(F)cc2)CC1)c1ccccc1`, which Ki [1] is on record?
A: The Ki was 2.2 nM.

Q: What about the Ki [2] of the same compound?
A: Its Ki is 58 nM.

Q: And the Ki [3]?
A: The Ki was 560 nM.

Q: What about the Ratio Ki [4] of the same compound?
A: The Ratio Ki was 26.

Q: What about the Ratio Ki [5] of the same compound?
A: Its Ratio Ki is 253.

Q: What does the source list for `O[C@H](CCN1CCC(CCOC(c2ccccc2)c2ccccc2)CC1)c1ccccc1`?
A: Ki [1]: 1.8 nM; Ki [2]: 280 nM; Ki [3]: > 5600 nM; Ratio Ki [4]: 158; Ratio Ki [5]: > 3200

Q: For `O[C@@H](CCc1ccccc1)CN1CCC(CCOC(c2ccc(F)cc2)c2ccc(F)cc2)CC1`, which Ki [1] is on record?
A: Its Ki is 1.6 nM.

Q: What about the Ki [2] of the same compound?
A: Its Ki is 38 nM.

Q: What about the Ki [3] of the same compound?
A: The Ki was 736 nM.

Q: What about the Ratio Ki [4] of the same compound?
A: Its Ratio Ki is 24.

Q: What about the Ratio Ki [5] of the same compound?
A: The Ratio Ki was 457.

Q: What does the source list for `O[C@@H](CCN1CCC(CCOC(c2ccc(F)cc2)c2ccc(F)cc2)CC1)c1ccccc1`?
A: Ki [1]: 0.9 nM; Ki [2]: 22 nM; Ki [3]: 440 nM; Ratio Ki [4]: 26; Ratio Ki [5]: 515

Q: What does the source list for `Fc1ccc(C(OCCC2CCN(C[C@@H]3C[C@H]3c3ccccc3)CC2)c2ccc(F)cc2)cc1`?
A: Ki [1]: 0.5 nM; Ki [2]: 16 nM; Ki [3]: 947 nM; Ratio Ki [4]: 32; Ratio Ki [5]: 1890

Q: What does the source list for `C[C@@H](Cc1ccccc1)CN1CCC(CCOC(c2ccc(F)cc2)c2ccc(F)cc2)CC1`?
A: Ki [1]: 8 nM; Ki [2]: 100 nM; Ki [3]: 380 nM; Ratio Ki [4]: 13; Ratio Ki [5]: 47; Ki [6]: 3.8 nM; Ki [7]: 124 nM; Ki [8]: 160 nM; Ratio Ki [9]: 33; Ratio Ki [10]: 42

Q: For `O[C@@H](Cc1ccccc1)CN1CCC(CCOC(c2ccc(F)cc2)c2ccc(F)cc2)CC1`, which Ki [1] is on record?
A: Its Ki is 0.4 nM.

Q: What about the Ki [2] of the same compound?
A: The Ki was 82 nM.

Q: What about the Ki [3] of the same compound?
A: The Ki was 361 nM.

Q: And the Ratio Ki [4]?
A: Its Ratio Ki is 205.

Q: And the Ratio Ki [5]?
A: The Ratio Ki was 902.

Q: Which Ki [1] does the source give for `O[C@H](Cc1ccccc1)CN1CCC(CCOC(c2ccccc2)c2ccccc2)CC1` here?
A: Its Ki is 6.9 nM.

Q: What about the Ki [2] of the same compound?
A: The Ki was 286 nM.

Q: And the Ki [3]?
A: The Ki was 785 nM.

Q: And the Ratio Ki [4]?
A: The Ratio Ki was 42.

Q: And the Ratio Ki [5]?
A: The Ratio Ki was 114.

Q: For `O[C@H](Cc1ccccc1)CN1CCC(CCOC(c2ccc(F)cc2)c2ccc(F)cc2)CC1`, which Ki [1] is on record?
A: Its Ki is 5.1 nM.

Q: What about the Ki [2] of the same compound?
A: Its Ki is 91 nM.

Q: What about the Ki [3] of the same compound?
A: The Ki was 1220 nM.

Q: What about the Ratio Ki [4] of the same compound?
A: The Ratio Ki was 18.

Q: What about the Ratio Ki [5] of the same compound?
A: Its Ratio Ki is 240.

Q: What about the Ki [6] of the same compound?
A: The Ki was 1.7 nM.

Q: What about the Ki [7] of the same compound?
A: The Ki was 41 nM.

Q: And the Ki [8]?
A: The Ki was 143 nM.

Q: And the Ratio Ki [9]?
A: Its Ratio Ki is 24.

Q: What about the Ratio Ki [10] of the same compound?
A: The Ratio Ki was 84.

Q: Which results are given for `C[C@H](Cc1ccccc1)CN1CCC(CCOC(c2ccc(F)cc2)c2ccc(F)cc2)CC1`?
A: Ki [1]: 0.9 nM; Ki [2]: 53 nM; Ki [3]: 103 nM; Ratio Ki [4]: 61; Ratio Ki [5]: 118

Q: For `Fc1ccc(C(OCCC2CCN(CC3=Cc4ccccc4CC3)CC2)c2ccc(F)cc2)cc1`, which Ki [1] is on record?
A: Its Ki is 1.1 nM.

Q: And the Ki [2]?
A: The Ki was 127 nM.

Q: What about the Ki [3] of the same compound?
A: The Ki was 43 nM.

Q: What about the Ratio Ki [4] of the same compound?
A: The Ratio Ki was 118.

Q: And the Ratio Ki [5]?
A: The Ratio Ki was 40.

Q: Which results are given for `N[C@H](Cc1ccccc1)CN1CCC(CCOC(c2ccc(F)cc2)c2ccc(F)cc2)CC1`?
A: Ki [1]: 12 nM; Ki [2]: 68 nM; Ki [3]: 941 nM; Ratio Ki [4]: 6; Ratio Ki [5]: 78; Ki [6]: 17 nM; Ki [7]: 229 nM; Ki [8]: 402 nM; Ratio Ki [9]: 13; Ratio Ki [10]: 24

Q: Which Ki [1] does the source give for `O[C@@H](Cc1ccccc1)CN1CCC(CCOC(c2ccccc2)c2ccccc2)CC1` here?
A: Its Ki is 1.4 nM.

Q: And the Ki [2]?
A: The Ki was 450 nM.

Q: What about the Ki [3] of the same compound?
A: Its Ki is 485 nM.

Q: What about the Ratio Ki [4] of the same compound?
A: Its Ratio Ki is 332.

Q: And the Ratio Ki [5]?
A: The Ratio Ki was 359.

Q: What does the source list for `O[C@H](CCN1CCC(CCOC(c2ccc(F)cc2)c2ccc(F)cc2)CC1)c1ccccc1`?
A: Ki [1]: 0.8 nM; Ki [2]: 43 nM; Ki [3]: 330 nM; Ratio Ki [4]: 51; Ratio Ki [5]: 394

Q: For `O[C@@H](CCN1CCC(CCOC(c2ccccc2)c2ccccc2)CC1)c1ccccc1`, which Ki [1] is on record?
A: The Ki was 2.1 nM.

Q: What about the Ki [2] of the same compound?
A: Its Ki is 230 nM.

Q: What about the Ki [3] of the same compound?
A: The Ki was 210 nM.

Q: And the Ratio Ki [4]?
A: Its Ratio Ki is 107.

Q: What about the Ratio Ki [5] of the same compound?
A: Its Ratio Ki is 101.

Q: For `N[C@@H](Cc1ccccc1)CN1CCC(CCOC(c2ccc(F)cc2)c2ccc(F)cc2)CC1`, which Ki [1] is on record?
A: Its Ki is 6.3 nM.

Q: And the Ki [2]?
A: Its Ki is 76 nM.

Q: What about the Ki [3] of the same compound?
A: The Ki was 851 nM.

Q: What about the Ratio Ki [4] of the same compound?
A: Its Ratio Ki is 12.

Q: What about the Ratio Ki [5] of the same compound?
A: Its Ratio Ki is 135.

Q: What about the Ki [6] of the same compound?
A: Its Ki is 13 nM.

Q: What about the Ki [7] of the same compound?
A: Its Ki is 228 nM.

Q: What about the Ki [8] of the same compound?
A: Its Ki is 338 nM.

Q: And the Ratio Ki [9]?
A: The Ratio Ki was 18.

Q: What about the Ratio Ki [10] of the same compound?
A: Its Ratio Ki is 26.
